Experimental data from patent publication US8563717B2, “Adenine derivatives” (GlaxoSmithKline LLC, priority 2008, dated 2013).
Counter-ions that a name gives are not always drawn.

These compounds were tested on Interferon-α (assay: Induction of Interferon-α using cryopreserved human PBMCs). Settings: PBMC, 24 h incubation, normalised to 1 uM resiquimod, read-out: mean pEC50 for induction of IFN-α (converted).
Type: cell-based
Description: Assay for the Induction of Interferon-α Using Cryopreserved Human Peripheral Blood Mononuclear Cells (PBMCs)
Compounds were dissolved in DMSO. Serial 2-fold dilutions with DMSO were prepared and 0.25 μl dispensed into 384-well clear Greiner polypropylene plates.
Blood samples of up to 200 ml were obtained from healthy human donors. Whole blood in 25 ml volumes was overlaid onto 15 ml Ficoll gradients in Leucosep tubes, and centrifuged at 1000 g for 20 min. Cells in the band at the plasma/histopaque interface were carefully removed and washed twice with PBS (centrifuged at 400 g for 5 min to harvest). The final pellet was resuspended in freezing medium (90% Heat-inactivated serum, 10% DMSO) to a cell concentration of 4×10^7 cells/ml. The resuspended cells were then cryopreserved (frozen) using a rate controlled freezer, and stored at −140° C. for up to 4 months.
Immediately prior to assay, vials of cryopreserved (frozen) PBMCs were thawed rapidly in a water bath at 37° C. A 1:10 dilution of the cells in trypan blue was prepared and counted. The PBMCs were then diluted in growth media [RPMI 1640 containing 10% fetal calf serum (invitrogen), Penicillin+[…] (Gibco cat. #25030-024, 1:50), L-Glutamine 2 mM, and 1000 units/ml recombinant human IFN-gamma (Preprotech catalogue #300-02)] to a density of 1×10^6 cells/ml, and 50 ul/well dispensed to 384-well clear Greiner polypropylene plates containing 0.25 μl DMSO or test compound in 0.25 μl DMSO. […] Plates were incubated for 24 h at 37° C. in 5% CO2.
A multi-isoform immunoassay was used to quantify IFN-α in PBMC supernatants. Rabbit polyclonal antibody against human IFN-α (catalogue number 31101, Stratech Scientific) was diluted 1:10000 in assay buffer (RPMI 1640 containing 10% fetal calf serum, Invitrogen) and 20 μl was added to each well of an MSD (Meso-Scale Discovery) single small-spot 384-well GAR (goat anti-rabbit antibody coated) plate. The plate was incubated for 1 hour at room temperature with vigorous shaking. Following three washes with PBS, 20 μl of cell supernatant were added to each well of the plate. The plate was then incubated for 1 hour at room temperature with vigorous shaking. A pair of monoclonal antibodies to IFN-α (catalogue numbers 21100 and 21112, Stratech Scientific) were labelled with sulfo-TAG (MSD), diluted 1:1000 in assay buffer and 20 μl added to each well of the plate. The plate was further incubated for 1 hour at room temperature with vigorous shaking. Following three washes with PBS, 30 μl of x2 T buffer (MSD) was added to each well and the plate was read on an MSD Sector 6000 plate reader.
Data were normalised to internal plate controls of 1 uM resiquimod (n=16) and DMSO (n=16). pEC50 values were derived by 4-parameter curve fit with IRLS in ActivityBase, from 11-point, two-fold serial dilution of test compounds.

Row | SMILES | EC50 [µM]
1 | CCCCNc1nc(N)c2[nH]c(=O)n(CC3CCCN(CC)C3)c2n1 (stereo not shown) [Example 2, 6-Amino-2-(butylamino)-9-[(1-ethyl-3-piperidinyl)methyl]-7,9-dihydro-8H-purin-8-one] | < 1.58
2 | CCCCOc1nc(N)c2[nH]c(=O)n(CC3CCNCC3)c2n1 [Example 3, hydrochloride] | < 1.58
3 | CCCCOc1nc(N)c2[nH]c(=O)n(CC3CCCNC3)c2n1 (stereo not shown) [Example 4, hydrochloride] | < 1.58
4 | CCCCOc1nc(N)c2[nH]c(=O)n(CCC3CCNCC3)c2n1 [Example 6, hydrochloride] | < 1.58
5 | CCCCOc1nc(N)c2[nH]c(=O)n(CCC3CCCCN3)c2n1 (stereo not shown) [Example 11, 6-Amino-2-(butyloxy)-9-[2-(2-piperidinyl)ethyl]-7,9-dihydro-8H-burin-8-one] | < 1.58
6 | CCCCOc1nc(N)c2[nH]c(=O)n(CCC3CCCCN3CC)c2n1 (stereo not shown) [Example 12, 6-Amino-2-(butyloxy)-9-[2-(1-ethyl-2-piperidinyl)ethyl]-7,9-dihydro-8H-purin-8-one] | < 1.58
7 | CCCCOc1nc(N)c2[nH]c(=O)n(CCCC3CCCCN3)c2n1 (stereo not shown) [Example 13, 6-Amino-2-(butyloxy)-9-[3-(2-piperidinyl)propyl]-7,9-dihydro-8H-purin-8-one] | < 1.58
8 | CCCCOc1nc(N)c2[nH]c(=O)n(CCCC3CCCCN3CC)c2n1 (stereo not shown) [Example 14, 6-Amino-2-(butyloxy)-9-[3-(1-ethyl-2-piperidinyl)propyl]-7,9-dihydro-8H-purin-8-one] | < 1.58
9 | CCCCOc1nc(N)c2[nH]c(=O)n(CCCC3CCCCN3CCC)c2n1 (stereo not shown) [Example 15, 6-Amino-2-(butyloxy)-9-[3-(1-propyl-2-piperidinyl)propyl]-7,9-dihydro-8H-purin-8-one] | < 1.58
10 | CCCCOc1nc(N)c2[nH]c(=O)n(CCCC3CCCCN3C(C)C)c2n1 (stereo not shown) [Example 16, 6-Amino-2-(butyloxy)-9-{3-[1-(1-methylethyl)-2-piperidinyl]propyl}-7,9-dihydro-8H-purin-8-one] | < 1.58
11 | CCCCOc1nc(N)c2[nH]c(=O)n(CCCC3CCCCN3CCCC)c2n1 (stereo not shown) [Example 17, 6-Amino-2-(butyloxy)-9-[3-(1-butyl-2-piperidinyl)propyl]-7,9-dihydro-8H-purin-8-one] | < 1.58
12 | CCCCOc1nc(N)c2[nH]c(=O)n(CCCC3CCCCN3CCC(C)C)c2n1 (stereo not shown) [Example 19, 6-Amino-2-(butyloxy)-9-{3-[1-(3-methylbutyl)-2-piperidinyl]propyl}-7,9-dihydro-8H-purin-8-one] | < 1.58
13 | CCCCOc1nc(N)c2[nH]c(=O)n(CCCC3CCCCN3C3CCCC3)c2n1 (stereo not shown) [Example 20, 6-Amino-2-(butyloxy)-9-[3-(1-cyclopentyl-2-piperidinyl)propyl]-7,9-dihydro-8H-purin-8-one] | < 1.58
14 | CCCCOc1nc(N)c2[nH]c(=O)n(CCCC3CCCCN3CC3CCCC3)c2n1 (stereo not shown) [Example 21, 6-Amino-2-(butyloxy)-9-{3-[1-(cyclopentylmethyl)-2-piperidinyl]propyl}-7,9-dihydro-8H-purin-8-one] | < 1.58
15 | CCCCOc1nc(N)c2[nH]c(=O)n(CCCC3CCCCN3CCC3CCCCC3)c2n1 (stereo not shown) [Example 22, 6-Amino-2-(butyloxy)-9-{3-[1-(2-cyclohexylethyl)-2-piperidinyl]propyl}-7,9-dihydro-8H-purin-8-one] | < 1.58
16 | CCCCOc1nc(N)c2[nH]c(=O)n(CC3CCCN(CCCC)C3)c2n1 (stereo not shown) [Example 25, 6-Amino-2-(butyloxy)-9-[(1-butyl-3-piperidinyl)methyl]-7,9-dihydro-8H-purin-8-one] | < 1.58
17 | CCCCOc1nc(N)c2[nH]c(=O)n(CC3CCCN(CC(C)C)C3)c2n1 (stereo not shown) [Example 26, 6-Amino-2-(butyloxy)-9-{[1-(2-methylpropyl)-3-piperidinyl]methyl}-7,9-dihydro-8H-purin-8-one] | < 1.58

Row | SMILES | EC50 [µM]
18 | CCCCOc1nc(N)c2[nH]c(=O)n(CC3CCCN(CCC(C)C)C3)c2n1 (stereo not shown) [Example 27, 6-Amino-2-(butyloxy)-9-{[1-(3-methylbutyl)-3-piperidinyl]methyl}-7,9-dihydro-8H-purin-8-one] | < 1.58
19 | CCCCOc1nc(N)c2[nH]c(=O)n(CC3CCCN(C4CCCC4)C3)c2n1 (stereo not shown) [Example 28, 6-Amino-2-(butyloxy)-9-[(1-cyclopentyl-3-piperidinyl)methyl]-7,9-dihydro-8H-purin-8-one hydrochloride] | < 1.58
20 | CCCCOc1nc(N)c2[nH]c(=O)n(CCC3CCCN(CCC)C3)c2n1 (stereo not shown) [Example 31, 6-Amino-2-(butyloxy)-9-[2-(1-propyl-3-piperidinyl)ethyl]-7,9-dihydro-8H-purin-8-one] | < 1.58
21 | CCCCOc1nc(N)c2[nH]c(=O)n(CCC3CCCN(CCCC)C3)c2n1 (stereo not shown) [Example 33, 6-Amino-2-(butyloxy)-9-[2-(1-butyl-3-piperidinyl)ethyl]-7,9-dihydro-8H-purin-8-one] | < 1.58
22 | CCCCOc1nc(N)c2[nH]c(=O)n(CCC3CCCN(CC(C)C)C3)c2n1 (stereo not shown) [Example 34, 6-Amino-2-(butyloxy)-9-{2-[1-(2-methylpropyl)-3-piperidinyl]ethyl}-7,9-dihydro-8H-purin-8-one] | < 1.58
23 | CCCCOc1nc(N)c2[nH]c(=O)n(CCC3CCCN(C(CC)CC)C3)c2n1 (stereo not shown) [Example 35, 6-Amino-2-(butyloxy)-9-{2-[1-(1-ethylpropyl)-3-piperidinyl]ethyl}-7,9-dihydro-8H-purin-8-one] | < 1.58
24 | CCCCOc1nc(N)c2[nH]c(=O)n(CCC3CCCN(C4CCCC4)C3)c2n1 (stereo not shown) [Example 36, 6-Amino-2-(butyloxy)-9-[2-(1-cyclopentyl-3-piperidinyl)ethyl]-7,9-dihydro-8H-purin-8-one] | < 1.58
25 | CCCCOc1nc(N)c2[nH]c(=O)n(CCC3CCCN(CC4CCCC4)C3)c2n1 (stereo not shown) [Example 37, 6-Amino-2-(butyloxy)-9-{2-[1-(cyclopentylmethyl)-3-piperidinyl]ethyl}-7,9-dihydro-8H-purin-8-one] | < 1.58
26 | CCCCOc1nc(N)c2[nH]c(=O)n(CCC3CCCN(CCC4CCCCC4)C3)c2n1 (stereo not shown) [Example 39, 6-Amino-2-(butyloxy)-9-{2-[1-(2-cyclohexylethyl)-3-piperidinyl]ethyl}-7,9-dihydro-8H-purin-8-one] | < 1.58
27 | CCC[C@H](C)Oc1nc(N)c2[nH]c(=O)n(CCC3CCCNC3)c2n1 (stereo partly drawn) [Example 40, 6-Amino-2-{[(1S)-1-methylbutyl]oxy}-9-[2-(3-piperidinyl)ethyl]-7,9-dihydro-8H-purin-8-one] | < 1.58
28 | CCCCOc1nc(N)c2[nH]c(=O)n(CCCC3CCCNC3)c2n1 (stereo not shown) [Example 43, 6-Amino-2-(butyloxy)-9-[3-(3-piperidinyl)propyl]-7,9-dihydro-8H-purin-8-one] | < 1.58
29 | CCCCOc1nc(N)c2[nH]c(=O)n(CCCC3CCCN(CC)C3)c2n1 (stereo not shown) [Example 44, 6-Amino-2-(butyloxy)-9-[3-(1-ethyl-3-piperidinyl)propyl]-7,9-dihydro-8H-purin-8-one] | < 1.58
30 | CCCCOc1nc(N)c2[nH]c(=O)n(CCCC3CCCN(CCC)C3)c2n1 (stereo not shown) [Example 45, 6-Amino-2-(butyloxy)-9-[3-(1-propyl-3-piperidinyl)propyl]-7,9-dihydro-8H-purin-8-one] | < 1.58
31 | CCCCOc1nc(N)c2[nH]c(=O)n(CCCC3CCCN(C(C)C)C3)c2n1 (stereo not shown) [Example 46, 6-Amino-2-(butyloxy)-9-{3-[1-(1-methylethyl)-3-piperidinyl]propyl}-7,9-dihydro-8H-purin-8-one] | < 1.58
32 | CCCCOc1nc(N)c2[nH]c(=O)n(CCCC3CCCN(CCCC)C3)c2n1 (stereo not shown) [Example 47, 6-Amino-2-(butyloxy)-9-[3-(1-butyl-3-piperidinyl)propyl]-7,9-dihydro-8H-purin-8-one] | < 1.58
33 | CCCCOc1nc(N)c2[nH]c(=O)n(CCCC3CCCN(CC(C)C)C3)c2n1 (stereo not shown) [Example 48, 6-Amino-2-(butyloxy)-9-{3-[1-(2-methylpropyl)-3-piperidinyl]propyl}-7,9-dihydro-8H-purin-8-one hydrochloride] | < 1.58
34 | CCCCOc1nc(N)c2[nH]c(=O)n(CCCC3CCCN(CCC(C)C)C3)c2n1 (stereo not shown) [Example 49, 6-Amino-2-(butyloxy)-9-{3-[1-(3-methylbutyl)-3-piperidinyl]propyl}-7,9-dihydro-8H-purin-8-one] | < 1.58
